This is an account of results in EP0779076A1, “PEPTIDE, A METHOD OF OBTAINING IT AND A PHARMACEUTICAL COMPOUND BASED ON IT” (priority 1994, dated 1996).

Non-standard residues stand in square brackets, D forms with d. Residues, ends and D or L forms follow the SMILES beside them.

In one data set the test system is rats. The data set is described as follows: Tail flick analgesic test. The data set is classed as in vivo. To be noted: intranasally 0.005 mg/kg. The source says:
Opium-like activity was studied in a classical way by […] tests on isolated organs: - Test GPI (Guang T.A, Kosterlitz H.W, Agonist and antagonist action of morphine like drugs on the guinea pigs isolated ileum, Br.J. Pharmacol., 1966, V.27N3.P.514-527 - Test MVD; Hughs J., Kosterlitz H.W., Leslie F.M, Effect of morphine on adrenergic transmission in mouse is different. Assessment of agonist and antagonist potencies of narcotics, Br.J. Pharmacol., 1975, V. 53, N3-P. 371-381) As well as tests to determine opium-like activities by the […] hot plate test (Aukier S.I., New hot plate tests to qualify analgesic and narcotic antagonist activities, Eur.J. Pharmacol., 174 - V.27 Ni p.1-4) and "Tail flick" on rats (D'Amour F.E., Smith D.L, A method for determining loss, Exp.Ther.,1974, V.72 Ni-p.74-79).
The analgesic activities of those peptides were tested by the "tail flick" method on rats which received intranasally a dose of 0.005 mg/kg. A real analgesic effect of 242 units was characteristic to the peptide H-Arg-Tyr-D-Ala-Phe-Gly-OH. Table 2 outlines the findings with regard to the opium-like activity for this peptide group.

On to `C[C@@H](NC(=O)[C@H](Cc1ccc(O)cc1)NC(=O)[C@@H](N)CCCNC(=N)N)C(=O)N[C@@H](Cc1ccccc1)C(=O)NCC(=O)O` [H-Arg-Tyr-D-Ala-Phe-Gly-OH] (H-RY[dA]FG-OH), for which, under “alcohol”, the solubility in alcohol result is “not well dissolvable in alcohol”. For the same compound, under “chloroform”, the solubility in chloroform result was “nonsoluble in chloroform”. The solubility in water result (water) is listed as “dissolvable in water”. The analgesic effect in the data set on rats is listed as 242 units.
